Measured values as given in patent publication US10004701B2, “Methods and compositions for treating infection” (UNIVERSITY OF ROCHESTER, priority 2012, dated 2018).
Structures can show the parent of a compound that is named as a salt. Where two headings read alike, the source gives them in different places.

Experiments:
Assay in all cases: AK assay 384-well format, Prestwick library screening
E. faecium = format: cell-based, Enterococcus faecium; conditions: 50 μM final drug concentration; for fold induction at 50 µM: Enterococcus faecium, 3 h
[1] = tested on: S. aureus strain USA300-0114; format: cell-based, Staphylococcus aureus; conditions: 50 μM final drug concentration; for fold induction at 50 µM: Staphylococcus aureus, USA300, 3 h
K. pneumoniae = format: cell-based, Klebsiella pneumoniae; conditions: 50 μM final drug concentration; for fold induction at 50 µM: Klebsiella pneumoniae, 3 h
[2] = tested on: A. baumannii strain 98-37-09; format: cell-based, Acinetobacter baumannii; conditions: 50 μM final drug concentration; for fold induction at 50 µM: Acinetobacter baumannii, 983709, 3 h
P. aeruginosa = format: cell-based, Pseudomonas aeruginosa; conditions: 50 μM final drug concentration; for fold induction at 50 µM: Pseudomonas aeruginosa, 3 h
E. cloacae = format: cell-based, Enterobacter cloacae; conditions: 50 μM final drug concentration; for fold induction at 50 µM: Enterobacter cloacae, 3 h
E. coli = format: cell-based, Escherichia coli; conditions: 50 μM final drug concentration; for fold induction at 50 µM: Escherichia coli, 3 h
[3] = planktonic E. faecium, cutoff for positive-scoring molecules 3-fold increase, read-out: AK-based Prestwick Library Screening Results, E. faecium (increase in extracellular AK activity)
[4] = planktonic S. aureus, cutoff for positive-scoring molecules 3-fold increase, read-out: AK-based Prestwick Library Screening Results, S. aureus (increase in extracellular AK activity)
[5] = planktonic K. pneumoniae, cutoff for positive-scoring molecules 3-fold increase, read-out: AK-based Prestwick Library Screening Results, K. pneumoniae (increase in extracellular AK activity)
[6] = planktonic A. baumannii, cutoff for positive-scoring molecules 3-fold increase, read-out: AK-based Prestwick Library Screening Results, A. baumannii (increase in extracellular AK activity)
[7] = planktonic P. aeruginosa, cutoff for positive-scoring molecules 3-fold increase, read-out: AK-based Prestwick Library Screening Results, P. aeruginosa (increase in extracellular AK activity)
[8] = planktonic E. cloacae, cutoff for positive-scoring molecules 3-fold increase, read-out: AK-based Prestwick Library Screening Results, E. cloacae (increase in extracellular AK activity)
[9] = planktonic E. coli, cutoff for positive-scoring molecules 3-fold increase, read-out: AK-based Prestwick Library Screening Results, E. coli (increase in extracellular AK activity)
[10] = cutoff for positive-scoring molecules 3-fold increase, read-out: AK-based Prestwick Library Screening Results, E. faecium (fold increase in extracellular AK activity)
[11] = cutoff for positive-scoring molecules 3-fold increase, read-out: AK-based Prestwick Library Screening Results, S. aureus (fold increase in extracellular AK activity)
[12] = cutoff for positive-scoring molecules 3-fold increase, read-out: AK-based Prestwick Library Screening Results, K. pneumoniae (fold increase in extracellular AK activity)
[13] = cutoff for positive-scoring molecules 3-fold increase, read-out: AK-based Prestwick Library Screening Results, A. baumannii (fold increase in extracellular AK activity)
[14] = cutoff for positive-scoring molecules 3-fold increase, read-out: AK-based Prestwick Library Screening Results, P. aeruginosa (fold increase in extracellular AK activity)
[15] = cutoff for positive-scoring molecules 3-fold increase, read-out: AK-based Prestwick Library Screening Results, E. cloacae (fold increase in extracellular AK activity)
[16] = cutoff for positive-scoring molecules 3-fold increase, read-out: AK-based Prestwick Library Screening Results, E. coli (fold increase in extracellular AK activity)
[17] = 384-well format, cutoff for positive-scoring molecules 3-fold increase, read-out: AK-based Prestwick Library Screening Results, E. faecium (increase in extracellular AK activity)
[18] = 384-well format, cutoff for positive-scoring molecules 3-fold increase, read-out: AK-based Prestwick Library Screening Results, S. aureus (increase in extracellular AK activity)
[19] = 384-well format, cutoff for positive-scoring molecules 3-fold increase, read-out: AK-based Prestwick Library Screening Results, K. pneumoniae (increase in extracellular AK activity)
[20] = 384-well format, cutoff for positive-scoring molecules 3-fold increase, read-out: AK-based Prestwick Library Screening Results, A. baumannii (increase in extracellular AK activity)
[21] = 384-well format, cutoff for positive-scoring molecules 3-fold increase, read-out: AK-based Prestwick Library Screening Results, P. aeruginosa (increase in extracellular AK activity)
[22] = 384-well format, cutoff for positive-scoring molecules 3-fold increase, read-out: AK-based Prestwick Library Screening Results, E. cloacae (increase in extracellular AK activity)
[23] = 384-well format, cutoff for positive-scoring molecules 3-fold increase, read-out: AK-based Prestwick Library Screening Results, E. coli (increase in extracellular AK activity)
[24] = cutoff for positive-scoring molecules 3-fold increase

## O=c1[nH]c2ccccc2n1CCCN1CCC(n2c(=O)[nH]c3cc(Cl)ccc32)CC1 [Domperidone]
E. faecium; [3]
  fold induction at 50 µM: 0.9
[1]; [4]
  fold induction at 50 µM: 0.8
K. pneumoniae; [5]
  fold induction at 50 µM: 0.6
[2]; [6]
  fold induction at 50 µM: 0.7
P. aeruginosa; [7]
  fold induction at 50 µM: 0.6
E. cloacae; [8]
  fold induction at 50 µM: 0.8
E. coli; [9]
  fold induction at 50 µM: 0.6

## CCN[C@H]1C[C@H](C)S(=O)(=O)c2sc(S(N)(=O)=O)cc21 [Dorzolamide hydrochloride]
E. faecium; planktonic E. faecium, positive cutoff 3-fold increase, read-out: AK-based Prestwick library screening result, E. faecium (fold increase in extracellular AK activity)
  fold induction at 50 µM: 2.3
[1]; planktonic S. aureus, positive cutoff 3-fold increase, read-out: AK-based Prestwick library screening result, S. aureus (fold increase in extracellular AK activity)
  fold induction at 50 µM: 1
K. pneumoniae; planktonic K. pneumoniae, positive cutoff 3-fold increase, read-out: AK-based Prestwick library screening result, K. pneumoniae (fold increase in extracellular AK activity)
  fold induction at 50 µM: 1.1
[2]; planktonic A. baumannii, positive cutoff 3-fold increase, read-out: AK-based Prestwick library screening result, A. baumannii (fold increase in extracellular AK activity)
  fold induction at 50 µM: 1.2
P. aeruginosa; planktonic P. aeruginosa, positive cutoff 3-fold increase, read-out: AK-based Prestwick library screening result, P. aeruginosa (fold increase in extracellular AK activity)
  fold induction at 50 µM: 0.9
E. cloacae; planktonic E. cloacae, positive cutoff 3-fold increase, read-out: AK-based Prestwick library screening result, E. cloacae (fold increase in extracellular AK activity)
  fold induction at 50 µM: 1.3
E. coli; planktonic E. coli, positive cutoff 3-fold increase, read-out: AK-based Prestwick library screening result, E. coli (fold increase in extracellular AK activity)
  fold induction at 50 µM: 1.1

## CN(C)CC/C=C1\c2ccccc2CSc2ccccc21 [Dosulepin hydrochloride]
E. faecium; [3]
  fold induction at 50 µM: 0.9
[1]; [4]
  fold induction at 50 µM: 0.5
K. pneumoniae; [5]
  fold induction at 50 µM: 0.5
[2]; [6]
  fold induction at 50 µM: 0.5
P. aeruginosa; [7]
  fold induction at 50 µM: 0.5
E. cloacae; [8]
  fold induction at 50 µM: 0.5
E. coli; [9]
  fold induction at 50 µM: 0.6

## COc1cc2nc(N3CCN(C(=O)C4COc5ccccc5O4)CC3)nc(N)c2cc1OC (stereo not drawn) [Doxazosin mesylate]
E. faecium; [10]
  fold induction at 50 µM: 1.1
[1]; [11]
  fold induction at 50 µM: 1.2
K. pneumoniae; [12]
  fold induction at 50 µM: 0.9
[2]; [13]
  fold induction at 50 µM: 1.3
P. aeruginosa; [14]
  fold induction at 50 µM: 1.1
E. cloacae; [15]
  fold induction at 50 µM: 1.5
E. coli; [16]
  fold induction at 50 µM: 1.4

## CN(C)CCC=C1c2ccccc2COc2ccccc21 [Doxepin hydrochloride]
E. faecium; [17]
  fold induction at 50 µM: 1
[1]; [18]
  fold induction at 50 µM: 0.9
K. pneumoniae; [19]
  fold induction at 50 µM: 0.8
[2]; [20]
  fold induction at 50 µM: 0.9
P. aeruginosa; [21]
  fold induction at 50 µM: 1.1
E. cloacae; [22]
  fold induction at 50 µM: 1
E. coli; [23]
  fold induction at 50 µM: 1.1

## COc1cccc2c1C(=O)c1c(O)c3c(c(O)c1C2=O)C[C@@](O)(C(=O)CO)C[C@@H]3O[C@H]1C[C@H](N)[C@H](O)[C@H](C)O1 [Doxorubicin hydrochloride]
E. faecium; [3]
  fold induction at 50 µM: 1.7
[1]; [4]
  fold induction at 50 µM: 0.9
K. pneumoniae; [5]
  fold induction at 50 µM: 0.7
[2]; [6]
  fold induction at 50 µM: 1
P. aeruginosa; [7]
  fold induction at 50 µM: 0.6
E. cloacae; [8]
  fold induction at 50 µM: 1.2
E. coli; [9]
  fold induction at 50 µM: 1

## CCO.C[C@H]1c2cccc(O)c2C(O)=C2C(=O)[C@]3(O)C(O)=C(C(N)=O)C(=O)[C@@H](N(C)C)[C@@H]3[C@@H](O)[C@@H]21.C[C@H]1c2cccc(O)c2C(O)=C2C(=O)[C@]3(O)C(O)=C(C(N)=O)C(=O)[C@@H](N(C)C)[C@@H]3[C@@H](O)[C@@H]21.Cl.Cl.O [Doxycycline hyclate]
E. faecium; [24]
  AK-based Prestwick Library Screening Results, E. faecium (fold increase in extracellular AK activity): 1.1
[1]; [24]
  AK-based Prestwick Library Screening Results, S. aureus (fold increase in extracellular AK activity): 9.4
K. pneumoniae; [24]
  AK-based Prestwick Library Screening Results, K. pneumoniae (fold increase in extracellular AK activity): 0.3
[2]; [24]
  AK-based Prestwick Library Screening Results, A. baumannii (fold increase in extracellular AK activity): 3.4
P. aeruginosa; [24]
  AK-based Prestwick Library Screening Results, P. aeruginosa (fold increase in extracellular AK activity): 0.7
E. cloacae; [24]
  AK-based Prestwick Library Screening Results, E. cloacae (fold increase in extracellular AK activity): 1.5
E. coli; [24]
  AK-based Prestwick Library Screening Results, E. coli (fold increase in extracellular AK activity): 2.0

## CN(C)CCOC(C)(c1ccccc1)c1ccccn1 (stereo not drawn) [Doxylamine succinate]
E. faecium; [17]
  fold induction at 50 µM: 0.9
[1]; [18]
  fold induction at 50 µM: 0.7
K. pneumoniae; [19]
  fold induction at 50 µM: 0.6
[2]; [20]
  fold induction at 50 µM: 0.8
P. aeruginosa; [21]
  fold induction at 50 µM: 0.8
E. cloacae; [22]
  fold induction at 50 µM: 1
E. coli; [23]
  fold induction at 50 µM: 0.8

## CCN(CC)CCOC(=O)C(c1ccccc1)C1CCCCC1 (stereo not drawn) [Drofenine hydrochloride]
E. faecium; [10]
  fold induction at 50 µM: 1
[1]; [11]
  fold induction at 50 µM: 1.5
K. pneumoniae; [12]
  fold induction at 50 µM: 1.2
[2]; [13]
  fold induction at 50 µM: 1.3
P. aeruginosa; [14]
  fold induction at 50 µM: 1.2
E. cloacae; [15]
  fold induction at 50 µM: 1.5
E. coli; [16]
  fold induction at 50 µM: 1.5

## O=C(CCCN1CC=C(n2c(=O)[nH]c3ccccc32)CC1)c1ccc(F)cc1 [Droperidol]
E. faecium; [3]
  fold induction at 50 µM: 1
[1]; [4]
  fold induction at 50 µM: 0.9
K. pneumoniae; [5]
  fold induction at 50 µM: 0.7
[2]; [6]
  fold induction at 50 µM: 1
P. aeruginosa; [7]
  fold induction at 50 µM: 0.7
E. cloacae; [8]
  fold induction at 50 µM: 1.2
E. coli; [9]
  fold induction at 50 µM: 0.9

## COc1c2c(nc3ccccc13)OC(C(C)(O)CO)C2 (stereo not drawn) [Dubinidine]
E. faecium; planktonic E. faecium, positive cutoff 3-fold increase
  AK-based Prestwick library screening result, E. faecium (fold increase in extracellular AK activity): 1.0
[1]; planktonic S. aureus, positive cutoff 3-fold increase
  AK-based Prestwick library screening result, S. aureus (fold increase in extracellular AK activity): 2.4
K. pneumoniae; planktonic K. pneumoniae, positive cutoff 3-fold increase
  AK-based Prestwick library screening result, K. pneumoniae (fold increase in extracellular AK activity): 0.9
[2]; planktonic A. baumannii, positive cutoff 3-fold increase
  AK-based Prestwick library screening result, A. baumannii (fold increase in extracellular AK activity): 1.1
P. aeruginosa; planktonic P. aeruginosa, positive cutoff 3-fold increase
  AK-based Prestwick library screening result, P. aeruginosa (fold increase in extracellular AK activity): 1.0
E. cloacae; planktonic E. cloacae, positive cutoff 3-fold increase
  AK-based Prestwick library screening result, E. cloacae (fold increase in extracellular AK activity): 1.3
E. coli; planktonic E. coli, […]
  AK-based Prestwick library screening result, E. coli (fold increase in extracellular AK activity): 1.4

## CCCCOc1ccc(C(=O)CCN2CCCCC2)cc1 [Dyclonine hydrochloride]
E. faecium; [17]
  fold induction at 50 µM: 1
[1]; [18]
  fold induction at 50 µM: 0.9
K. pneumoniae; [19]
  fold induction at 50 µM: 0.7
[2]; [20]
  fold induction at 50 µM: 0.9
P. aeruginosa; [21]
  fold induction at 50 µM: 1
E. cloacae; [22]
  fold induction at 50 µM: 1.1
E. coli; [23]
  fold induction at 50 µM: 1
